Measurements: patent US20240408093A1, “HETEROBIFUNCTIONAL COMPOUNDS AND THEIR USE IN TREATING DISEASE” (HALDA THERAPEUTICS OPCO, INC., priority 2022, published 2024)

What was measured:
HeLa cells (ATCC CCL-2) = assay: Cellular growth inhibition assay, HeLa cells (Example 16); assay type: cell-based; details: Homo sapiens, 72 hours, CellTiter-Glo 2.0
KRAS G12C [1] = molecular target: T1, KRAS G12C (Homo sapiens, UniProt P01116, G12C); assay: KRAS G12C nucleotide exchange assay (SOS1-mediated, HTRF); assay type: biochemical; design: GST-tagged KRAS G12C (amino acids 2-169); details: 1 hr pre-incubation
Outline: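 GST-tagged KRAS G12C (aa 2-169, 30 nM) pre-incubated 1 h at RT with compound (10-point, 3-fold dilution from 10 μM), then SOS1 (aa 564-1049, 20 nM) and GTP-DY-647P1 (0.15 μM) added. Exchange read by HTRF with anti-GST Tb antibody. IC50 from sigmoidal variable-slope fit.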
Target sequence in this assay (P01116 2-169 isoform P01116-2 G12C): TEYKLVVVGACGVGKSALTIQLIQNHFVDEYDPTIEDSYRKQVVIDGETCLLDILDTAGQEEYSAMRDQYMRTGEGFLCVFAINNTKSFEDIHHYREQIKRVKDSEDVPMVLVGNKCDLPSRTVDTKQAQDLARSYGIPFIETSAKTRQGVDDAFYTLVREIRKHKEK

KRAS G12C [2] = molecular target: T1, KRAS G12C; assay: KRAS G12C cellular target engagement assay (SW1573 cells); assay type: cell-based; design: host or cells: SW1573; details: 17 hours, read-out: TE50 (the source's name)
Description: SW1573 cells (ATCC CRL-2170) were cultured in RPMI 1640 (Gibco A1049101), supplemented with 10% Heat-inactivated FBS (Gibco Cat. #A38400-01) and 1% Penicillin/Streptomycin (Gibco Cat. #15140-122) in an incubator set at 37° C. and 5% CO2. Cells were seeded at 100,000 cells/ml in 1 ml of complete media in a 24-well, tissue culture-treated plate (Falcon 353226) and incubated overnight. Cells were treated with increasing concentrations of compound and let incubate at 37C and 5% CO2 for 17 hours, after which media was aspirated and cells were lysed in 75 uL RIPA Lysis and Extraction Buffer (Thermo 89901) supplemented with 5 mM MgCl2, Protease and Phosphatase inhibitor cocktail (Thermo 1861281), and Universal Nuclease (Thermo 88700). Plates with RIPA were shaken at 4° C. at 600 rpm for 15 min. After shaking samples, they were collected and spun down at 21,000 g for 15 min at 4° C. Following centrifugation, ˜10 ug of lysate was added to Laemmli Sample Buffer (Bio-Rad 1610747) plus 10% beta-mercaptoethanol, boiled for 15 minutes at 65° C. and loaded onto 12% Mini-PROTEAN TGX™ Precast Protein Gels (Bio-Rad). Protein was transferred to a nitrocellulose membrane (Thermo LC2000) using the iBlot 2 Dry Blotting System (Thermo). After transfer, membranes were washed in 1× TBST (Bioland Scientific LLC TBST0103) 3× for 5 min. Following the wash, blocking buffer (Rockland MB-070) was added for 1 hour at room temperature. Primary antibodies against KRAS (LifeSpan Bio LS-C175665) and actin (Cell Signaling Technology 8457) were added overnight at 4° C. Membranes were then washed again 3× for 5 min in 1× TBST. Secondary antibodies (LI-COR 926-68072 and 926-68073) were added and shaken for 1 hr at room temperature. Membranes were then washed 3× for 5 min in 1×TBST and developed. Membranes were placed on an Odyssey imager (LI-COR).
Target sequence in this assay (P01116 1-188 isoform P01116-2 G12C): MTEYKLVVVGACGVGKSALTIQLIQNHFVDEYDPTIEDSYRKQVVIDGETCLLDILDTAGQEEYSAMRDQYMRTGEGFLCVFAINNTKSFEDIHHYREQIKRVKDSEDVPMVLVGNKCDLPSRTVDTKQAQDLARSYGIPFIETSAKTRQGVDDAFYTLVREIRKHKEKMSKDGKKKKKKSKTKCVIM

[3] = system: HEK293 cells (ATCC CRL-1573); assay: Cellular growth inhibition assay, HEK293 cells (Example 16); assay type: cell-based; details: Homo sapiens, 72 hours, CellTiter-Glo 2.0

C=C(CN1CCN(c2nc(NCc3nc4cc(C)ccc4[nH]3)n3ncc(Br)c3n2)CC1)C(=O)N1CCN(c2nc(OC[C@@H]3CCCN3C)nc3c2CCN(c2cccc4cccc(Cl)c24)C3)C[C@@H]1CC#N [II-190]
GI50 (HeLa cells (ATCC CCL-2)): < 0.5 µM | IC50 (KRAS G12C [1]): < 0.1 µM | EC50 (KRAS G12C [2]): 0.25 to 5 µM | GI50 [3]: < 0.5 µM
